{"source": "paper PMC5790795", "about": "“N-Acetylmuramic Acid (MurNAc) Auxotrophy of the Oral Pathogen Tannerella forsythia: Characterization of a MurNAc Kinase and Analysis of Its Role in Cell Wall Metabolism” (Frontiers in Microbiology, 2018)", "target": "T1, Tf_MurK (rTf_MurK; Tanf_08380) (Tannerella forsythia, UniProt G8UQH1)", "T1 construct": "gene BFO_0034", "T1 sequence (G8UQH1 19-302)": "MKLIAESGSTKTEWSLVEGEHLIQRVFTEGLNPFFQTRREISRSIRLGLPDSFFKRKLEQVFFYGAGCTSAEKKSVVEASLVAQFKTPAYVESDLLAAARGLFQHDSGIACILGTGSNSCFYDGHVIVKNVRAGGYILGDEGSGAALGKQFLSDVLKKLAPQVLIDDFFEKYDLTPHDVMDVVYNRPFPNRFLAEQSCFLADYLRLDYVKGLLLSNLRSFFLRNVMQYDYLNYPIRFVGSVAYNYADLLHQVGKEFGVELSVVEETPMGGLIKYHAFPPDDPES", "experiment": "coupled pyruvate kinase / lactate dehydrogenase assay, NADH at […] nm", "format": "biochemical", "settings": "ATP, 10 mM MgCl2, 50 mM phosphate pH 7.0, 20 °C; substrate inhibition constant", "data": [{"smiles": "CC(=O)N[C@H]1C(O)O[C@H](CO)[C@@H](O)[C@@H]1O[C@H](C)C(=O)O", "note": "(stereo partly shown) [MurNAc]", "values": [{"measurement": "Ki(S)", "value": 4.2, "unit": "mM"}]}]}
